Source: ChEMBL document CHEMBL3507680, “University of Dundee, Gates Library screen for HepG2 cell viability”

Assay: Human HepG2 cell viability assay in 384 well format
Type: toxicity, cell-based
Design: dose 125 nL, time 70.5 hour; concentration not given beside the values
Settings: HepG2 cells, read-out: Inhibition

Row | Structure (SMILES) | cytotoxicity at 70.5 h [%]
1 | Cc1cc(C)n(CC2CCCCN2CC(=O)NC2CCOCC2)n1 (stereo unspecified) | 18.3
2 | O=C(c1cc2ccccc2[nH]1)N1CCCCC1Cn1cccn1 (stereo unspecified) | -1.58
3 | Cc1cc(C)n(C2CN(CC(O)c3ccc(C(F)(F)F)cc3)C2)n1 (stereo unspecified) | -4.01
4 | Cc1ncsc1C(=O)NC1CCN(Cc2ccc(C(F)(F)F)cc2)CC1 | 26.5
5 | CCOCC(O)CN1CCN(C(=O)c2ccc(N(C)C)nn2)CC1 (stereo unspecified) | 24.3
6 | CC(c1c(F)cccc1F)N1CCN(Cc2nccn2C)CC1 (stereo unspecified) | 24.5
7 | Cn1c(C2CC2)nc2c1CCN(CC(=O)Nc1ccncc1)C2 | 4.27
8 | CCN(Cc1ccc2c(c1)OCO2)C(=O)NC(C)Cn1ccnc1 (stereo unspecified) | 1.66
9 | CCc1nc(CN2CCCN(C(=O)CC(F)(F)F)CC2)cs1 | 1.28
10 | Cn1c(C2CC2)nc2c1CCN(CCOc1ccccc1C#N)C2 | 23.9
11 | COc1ncccc1NC(=O)C1CC1 | -1.48
12 | CNC(=O)CN1CCC(NC(=O)Cc2ccc3c(c2)OCCO3)CC1 | 0.523
13 | Cc1ccccc1C(=O)NCc1ccnc(N(C)C)c1 | 0.094
14 | Cc1ccc(C(=O)NCc2ccnc(N(C)C)c2)c(C)c1 | 1.03
15 | O=C(NCCCN1CCCCCC1=O)c1n[nH]c(=O)c2ccccc12 | -2.46
16 | O=C(NCCN1CCCCCC1)c1n[nH]c(=O)c2ccccc12 | 1.79
17 | O=C(Nc1cccnc1N1CCCC1)C1CCS(=O)(=O)C1 (stereo unspecified) | 1.04
18 | CC(C)c1noc(CCC(=O)NC2CCS(=O)(=O)C2)n1 (stereo unspecified) | 0.473
19 | CC(C)(C)c1noc(CCC(=O)NCC2CCS(=O)(=O)C2)n1 (stereo unspecified) | 1.1
20 | O=C(NCc1cc[nH]n1)NCC(O)c1ccccc1F (stereo unspecified) | 0.0915
21 | O=C(NCc1cc[nH]n1)NCC(O)c1ccc(F)cc1 (stereo unspecified) | 6.85
22 | CN(C)c1cc(CNC(=O)c2ccc(Br)cc2F)ccn1 | -4.97
23 | COc1ncccc1NC(=O)C1CCOCC1 | 22.9
24 | Cn1cnc2c1CCN(CCOc1ccc(C#N)cc1)C2 | 1.67

Row | Structure (SMILES) | cytotoxicity at 70.5 h [%]
25 | CC(C)c1nc2c(n1C)CCN(CCCOc1ccc(C#N)cc1)C2 | 2.99
26 | CN(C)c1ccc(C(=O)N2CCN(CC(C)(C)O)CC2)nn1 | -2.1
27 | CN(C)c1ncccc1CNc1cc(N2CCCC2CO)ncn1 (stereo unspecified) | 10.5
28 | CC(C)c1noc(CCC(=O)NCC2CCC(C(N)=O)CC2)n1 (stereo unspecified) | 1.53
29 | Cc1nnc(NC(=O)CN2CCc3c(nc(C4CC4)n3C)C2)s1 | 6.62
30 | CC(Cn1ccnc1)NC(=O)N(C)Cc1ccc2c(c1)OCO2 (stereo unspecified) | 1.49
31 | CCc1nc(CN(C)C2CCN(CCC(=O)N3CCCCC3)C2)no1 (stereo unspecified) | 0.593
32 | CCc1[nH]ncc1C(=O)N1CCCC(n2cncn2)C1 (stereo unspecified) | 1.79
33 | CN(CCC(=O)N1CCc2sccc2C1)Cc1ccc2c(c1)OCCO2 | -2.14
34 | Cc1cnn(CC2CN(Cc3noc(C4CC4)n3)CCO2)c1 (stereo unspecified) | -13.6
35 | c1cnn(CC2CN(Cc3nc(C4CC4)no3)CCO2)c1 (stereo unspecified) | 19.7
36 | CCn1c(CNCC2CCCN2c2cccnn2)nc2ccccc21 (stereo unspecified) | -9.03
37 | CCc1nc(CN(C)C2CCN(CC(F)(F)F)C2)no1 (stereo unspecified) | -4.19
38 | Cc1cccnc1CNC(=O)N(CCCO)C1CCc2ccccc21 (stereo unspecified) | -12.3
39 | CC(C)Cc1nc(CN2CCOC(Cn3cccn3)C2)no1 (stereo unspecified) | 15.4
40 | CCc1nc(C2CCCN2Cc2nccn2CC(F)(F)F)no1 (stereo unspecified) | 1.64
41 | Cc1cccc(CNC(=O)N(CCCO)C2CCc3ccccc32)n1 (stereo unspecified) | -1.88
42 | Cc1nc(C)n(CC2CN(Cc3noc(C4CC4)n3)CCO2)n1 (stereo unspecified) | -6.68
43 | Cc1ncc2c(n1)CCN(CCCc1nc3ccccc3o1)C2 | -2.27
44 | COc1ccc(F)cc1C(C)NC(=O)NCCCn1cncn1 (stereo unspecified) | -2.2
45 | CCS(=O)(=O)c1ccccc1C(=O)N1CCCC(n2cccn2)C1 (stereo unspecified) | 18.2
46 | CC(C)c1nc(CN2CCOC(Cn3cccn3)C2)no1 (stereo unspecified) | 1.63
47 | CC(C)(C)c1nc(CN2CCOC(Cn3cccn3)C2)no1 (stereo unspecified) | 0.39
48 | CC(C)c1nnc2n1CCN(C(=O)c1cccc(S(C)(=O)=O)c1)C2 | 17

Row | Structure (SMILES) | cytotoxicity at 70.5 h [%]
49 | CCc1nnc2n1CCN(C(=O)c1ccnc(N(C)C)c1)C2 | -2.04
50 | Cc1ccc(NC2CCN(C(=O)c3cccc4cccnc34)CC2)nn1 | -6.15
51 | Cc1nc(C2CCCN(C(=O)c3c(C)nn4cccnc34)C2)no1 (stereo unspecified) | -4.04
52 | CC(C)c1nc(CN2CCCN(Cc3nccn3C)CC2)no1 | 18.1
53 | Cc1nc(CN2CCCC(N(C)Cc3nccn3C)C2)no1 (stereo unspecified) | 21.6
54 | Cc1cnc(CN(C)C2CCN(CCCc3ccccc3)C2)o1 (stereo unspecified) | 10
55 | Cc1cc(CN2CCCC(c3cc(C(F)(F)F)[nH]n3)C2)no1 (stereo unspecified) | -15.8
56 | N#Cc1ccc(OCCN2CCn3c(nnc3C3CC3)C2)cc1 | 6.25
57 | COc1ccc(C)cc1CN(C)CC(=O)NC1(C)CCS(=O)(=O)C1 (stereo unspecified) | -15.5
58 | O=C(NCCNC(=O)c1scnc1Cl)c1cccs1 | -14.2
59 | O=C(NCCNC(=O)c1scnc1Cl)c1ccccc1Cl | -8.93
60 | Cc1cnc(C(=O)N2CCCN(c3nc(C)cs3)CC2)cn1 | -7.69
61 | NC(=O)CN1CCCN(C(=O)Cc2ccc3c(c2)OCCO3)CC1 | -11
62 | CCc1nnc2n1CCN(Cc1nnc(-c3occc3C)o1)C2 | -4.81
63 | Cc1nc(C)n(CC2CCCN2Cc2cn3cc(Cl)ccc3n2)n1 (stereo unspecified) | -1.76
64 | CCc1ccc(C(=O)N2CCC(Nc3ccc(C)nn3)CC2)o1 | -4.81
65 | COc1ccc(S(=O)(=O)N2CCc3ccc(F)cc32)cc1C(=O)O | 1.61
66 | Cc1nnc(C(C)N2CCN(Cc3ccc4c(c3)OCO4)CC2)o1 (stereo unspecified) | 16.9
67 | Cc1nnc(C(C)N2CCN(Cc3ccc(C#N)cc3)CC2)o1 (stereo unspecified) | -6.02
68 | Cc1cccc(-c2ccc(C(=O)NCCN(C)C3CC3)c(=O)[nH]2)c1 | -34.3
69 | COc1cc(CNC(=O)CNc2cc(Cl)ccc2OC)ccn1 | 3.6
70 | N#Cc1ccc(N2CCCN(C(=O)CC3CCCO3)CC2)cc1 (stereo unspecified) | -15.2
71 | Cc1nc(N2CCN(C(=O)c3ccsc3)CC2)c2cnn(C)c2n1 | -10.3
72 | Cc1nn(C)c(Cl)c1C1CCCN1C(=O)c1ccc2c(c1)OCO2 (stereo unspecified) | -16.9

Row | Structure (SMILES) | cytotoxicity at 70.5 h [%]
73 | COc1ccc(C(=O)NS(=O)(=O)c2ccc(C#N)cc2C(F)(F)F)cc1 | -16.9
74 | COc1ccc(CNC(C)c2ccc3[nH]c(=O)[nH]c3c2)cc1 (stereo unspecified) | -2.85
75 | Cc1cc(C(=O)O)cc(S(=O)(=O)Nc2ccc3c(c2)OCO3)c1C | 20.2
76 | Cc1ccc(S(=O)(=O)N2CCOc3ccccc32)cc1C(N)=O | 14
77 | CCc1ccc(O)c(C(=O)NC2CCN(C(=O)OC)CC2)c1 | -10.9
78 | CN1CCOC(CNC(=O)Cc2ccccc2F)C1 (stereo unspecified) | -8.56
79 | CN(Cc1ccccc1)CC(O)Cn1cnc2c(cnn2C)c1=O (stereo unspecified) | -5.87
80 | N#Cc1cccc(S(=O)(=O)NC(=O)COc2ccc3c(c2)CCC3)c1 | 4.27
81 | Cc1cnn(C2CCCN(C(=O)c3sccc3C#N)C2)c1 (stereo unspecified) | 28.7
82 | CC(C)(C)c1nnc(CN2CCOC(Cn3cncn3)C2)o1 (stereo unspecified) | -1.42
83 | Cc1ccccc1-c1noc(CN2CCn3c(nnc3C3CC3)C2)n1 | 20.5
84 | Cc1ccc2oc(C(=O)N3CCCC(c4noc(C)n4)C3)cc2n1 (stereo unspecified) | -5.41
85 | Cc1nnc2n1CCN(C(C(=O)NC1CC1)c1ccccc1)C2 (stereo unspecified) | -10.2
86 | NC(=O)c1ccc(S(=O)(=O)NC(=O)COc2ccc3c(c2)CCC3)cc1 | -6.16
87 | COCc1nc(C(=O)NS(=O)(=O)c2ccc(C)s2)cs1 | -4.27
88 | COCc1nc(C(=O)NS(=O)(=O)c2ccc(C)cc2C)cs1 | -11.1
89 | CS(=O)(=O)c1ccc(NC(=O)NCc2ccc3c(c2)CCC3)cn1 | -2.56
90 | Cc1ccc(OCC(=O)NS(=O)(=O)c2c(C)noc2C)cc1C | 25
91 | CC(C)c1nn(C)c(N2CCOCC2)c1CNCCS(C)(=O)=O | 3.3
92 | CN(Cc1ccccc1)CC(O)Cn1cnc2ccsc2c1=O (stereo unspecified) | -8.61
93 | O=C(CCCOc1ccccc1Cl)N1CCCC(n2cncn2)C1 (stereo unspecified) | 11
94 | Cc1ncsc1C(=O)N(Cc1cccnc1)C1CC1 | 3.01
95 | c1ccc(OCc2ccncc2)c(CNC2CCc3ncnn3C2)c1 (stereo unspecified) | 17.2
96 | CC(C)n1ccnc1CN1CCCN(C(=O)c2cc(Cl)c[nH]2)CC1 | -3.72

Row | Structure (SMILES) | cytotoxicity at 70.5 h [%]
97 | CCc1nc(C2CCCN2CCCS(=O)(=O)c2ccccc2)no1 (stereo unspecified) | -7.66
98 | CC(C)c1nc(C2CCCN2Cc2ccn(C)c(=O)c2)no1 (stereo unspecified) | -0.609
99 | CCC1c2ccsc2CCN1C(=O)NCc1ccccn1 (stereo unspecified) | -6.47
100 | Cc1noc(C2CCN(C(=O)CCNS(C)(=O)=O)CC2)n1 | -17.2
101 | Cc1c[nH]cc1C(=O)N1CCN(CCc2cccs2)CC1 | -5.85
102 | Cn1cc(NC(=O)N2CCC(c3ccccc3)CC2)ccc1=O | -3.71
103 | CN1CCN(C(=O)c2cccc(OCc3cscn3)c2)CC1 | 4.86
104 | Cn1cc(NC(=O)N2CCC(CN3CCCC3)CC2)ccc1=O | -0.384
105 | Cc1ccc(C(=O)N2CCN(CCC(C)(C)C)CC2)c(=O)[nH]1 | -6.54
106 | CC(C)(O)CN1CCN(C(=O)c2cccnc2O)CC1 | -2.58
107 | NC(=O)c1cc(C2CCCN(CCOCC(F)(F)F)C2)n[nH]1 (stereo unspecified) | 34.2
108 | Cn1cc(NC(=O)N2CCC(NS(C)(=O)=O)CC2)ccc1=O | 2.55
109 | NC(=O)c1cc(C2CCCN(CCCOc3ccccc3)C2)n[nH]1 (stereo unspecified) | -10.9
110 | NC(=O)c1cc(C2CCCN(CCc3ccccn3)C2)n[nH]1 (stereo unspecified) | -10.6
111 | CN(Cc1noc(C2CC2)n1)C1CCN(Cc2ccncc2)C1 (stereo unspecified) | -9.86
112 | CC(C)N1CC(C(=O)NCc2ccnc(-n3cccn3)c2)CC1=O (stereo unspecified) | -26.8
113 | CS(=O)(=O)NCC1CCCN(C(=O)COCC(F)(F)F)C1 (stereo unspecified) | -21
114 | CC(C)N1CCN(C(=O)Nc2cnn(CC(N)=O)c2)CC1 | 18.2
115 | Cc1cnn(CC2CCCCN2Cc2cc(C)on2)c1 (stereo unspecified) | -18.5
116 | c1cnn(CC2CCCCN2Cc2cn3ccsc3n2)c1 (stereo unspecified) | -13.5
